# PubChem BioAssay AID328 (DTP/NCI, 2004)
# Several values for one entry are separate records, joined by “and”; a condition that tells them apart may be missing. Identical values can stand only once. Inconclusive results and toxic doses are left out.
# Test system: BDF1 mice, P388 leukemia ip, median survival T/C
# Assay: NCI In Vivo Anticancer Drug Screen. Data for tumor model P388 Leukemia (intraperitoneal) in B6D2F1 (BDF1) mice
# Details: endpoint: median survival time, higher = longer survival
# Outline: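 Steps: implant the tumour, treat one group with compound and another with vehicle, record survival, then divide treated by control.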
# [1] = dose: 50.0 mg/kg/injection, schedule: Q04DX003 (ip), vehicle: saline
# [2] = dose: 100.0 mg/kg/injection, schedule: Q04DX003 (ip), vehicle: saline
# [3] = dose: 6.25 mg/kg/injection, schedule: Q01DX009 (ip), vehicle: other
# [4] = dose: 12.5 mg/kg/injection, schedule: Q01DX009 (ip), vehicle: other
# [5] = dose: 50.0 mg/kg/injection, schedule: Q01DX009 (ip), vehicle: other
# [6] = dose: 12.5 mg/kg/injection, schedule: Q04DX003 (ip), vehicle: saline
# [7] = dose: 25.0 mg/kg/injection, schedule: Q04DX003 (ip), vehicle: saline
# [8] = dose: 100.0 mg/kg/injection, schedule: Q01DX009 (ip), vehicle: saline
# [9] = dose: 25.0 mg/kg/injection, schedule: Q01DX009 (ip), vehicle: Klucel (hydroxypropylcellulose) (HPC)
# [10] = dose: 50.0 mg/kg/injection, schedule: Q01DX001 (ip), vehicle: saline sonified
# [11] = dose: 100.0 mg/kg/injection, schedule: Q01DX001 (ip), vehicle: saline sonified
structure (smiles),measurement,setting,value
CN(CCS)C(=N)N,T/C,"dose: 3.13 mg/kg/injection, schedule: Q01DX009 (ip), vehicle: saline with Tween-80",112 % of control
same,T/C,"dose: 6.25 mg/kg/injection, schedule: Q01DX009 (ip), vehicle: saline with Tween-80",99 % of control
same,T/C,"dose: 12.5 mg/kg/injection, schedule: Q01DX009 (ip), vehicle: saline with Tween-80",111 % of control
same,T/C,"dose: 25.0 mg/kg/injection, schedule: Q01DX009 (ip), vehicle: saline with Tween-80",104 % of control
CSC(N)=Nc1cccc2c1CCCC2,T/C,[1],108 % of control
same,T/C,[2],108 % of control
O=C(O)CC(O)(CC(=O)O)C(=O)O,T/C,"dose: 50.0 mg/kg/injection, schedule: Q02DX005 (ip), vehicle: water",123 % of control
same,T/C,"dose: 100.0 mg/kg/injection, schedule: Q02DX005 (ip), vehicle: water",114 % of control
same,T/C,"dose: 400.0 mg/kg/injection, schedule: Q02DX005 (ip), vehicle: water",94 % of control
CS(=O)(=O)OCCC(=O)N1CCN(C(=O)CCOS(C)(=O)=O)CC1,T/C,"dose: 11.2 mg/kg/injection, schedule: Q01DX010 (ip), vehicle: saline",150 % of control
same,T/C,"dose: 22.5 mg/kg/injection, schedule: Q01DX010 (ip), vehicle: saline",163 % of control
same,T/C,"dose: 45.0 mg/kg/injection, schedule: Q01DX010 (ip), vehicle: saline",150 % of control
same,T/C,"dose: 90.0 mg/kg/injection, schedule: Q01DX010 (ip), vehicle: saline",250 % of control
CCCCNC(C)(C)CSSSCC(C)(C)NCCCC,T/C,[3],110 % of control
same,T/C,[4],86 % of control
same,T/C,"dose: 12.5 mg/kg/injection, schedule: Q04DX003 (ip), vehicle: other",98 % of control
same,T/C,"dose: 25.0 mg/kg/injection, schedule: Q01DX009 (ip), vehicle: other",114 % of control
same,T/C,"dose: 25.0 mg/kg/injection, schedule: Q04DX003 (ip), vehicle: other",117 % of control
same,T/C,[5],110 % of control
same,T/C,"dose: 50.0 mg/kg/injection, schedule: Q04DX003 (ip), vehicle: other",117 % of control
same,T/C,"dose: 100.0 mg/kg/injection, schedule: Q04DX003 (ip), vehicle: other",112 % of control
C=C1C(=O)O[C@H]2C1[C@H](OC(=O)/C(C)=C\COC(C)=O)C[C@]1(CO1)[C@@H]1[C@H](O)[C@H]3O[C@@]3(C)[C@@H]12 (stereo partly specified),T/C,"dose: 3.12 mg/kg/injection, schedule: Q01DX009 (ip), vehicle: other",103 % of control
same,T/C,[3],96 % of control and 120 % of control
same,T/C,[4],101 % of control
same,T/C,[5],173 % of control
CC(Cc1ccc2ccccc2c1)C(=O)c1ccc2ccccc2c1 (stereo unspecified),T/C,"dose: 100.0 mg/kg/injection, schedule: Q01DX001 (ip), vehicle: saline with Tween-80",100 % of control
same,T/C,"dose: 200.0 mg/kg/injection, schedule: Q01DX001 (ip), vehicle: saline with Tween-80",100 % of control
same,T/C,"dose: 400.0 mg/kg/injection, schedule: Q01DX001 (ip), vehicle: saline with Tween-80",100 % of control
c1csc(CSc2ncnc3nc[nH]c23)c1,T/C,"dose: 100.0 mg/kg/injection, schedule: Q01DX009 (ip), vehicle: saline with Tween-80",100 % of control
same,T/C,"dose: 200.0 mg/kg/injection, schedule: Q01DX009 (ip), vehicle: saline with Tween-80",100 % of control
CC1CCC2=C(C1)S(=O)(=O)CC2 (stereo unspecified),T/C,"dose: 6.25 mg/kg/injection, schedule: Q04DX002 (ip), vehicle: saline",103 % of control
same,T/C,"dose: 12.5 mg/kg/injection, schedule: Q04DX002 (ip), vehicle: saline",94 % of control
same,T/C,"dose: 25.0 mg/kg/injection, schedule: Q04DX002 (ip), vehicle: saline",103 % of control
Cc1cc(N(c2c(Cl)c(Cl)c(NS(=O)(=O)c3ccccc3)c(Cl)c2Cl)S(=O)(=O)c2ccccc2)cc(C)c1N,T/C,"dose: 100.0 mg/kg/injection, schedule: Q04DX003 (ip), vehicle: Klucel (hydroxypropylcellulose) (HPC)",96 % of control
same,T/C,"dose: 200.0 mg/kg/injection, schedule: Q01DX009 (ip), vehicle: Klucel (hydroxypropylcellulose) (HPC)",92 % of control
same,T/C,"dose: 200.0 mg/kg/injection, schedule: Q04DX003 (ip), vehicle: Klucel (hydroxypropylcellulose) (HPC)",96 % of control
same,T/C,"dose: 400.0 mg/kg/injection, schedule: Q01DX009 (ip), vehicle: Klucel (hydroxypropylcellulose) (HPC)",96 % of control
same,T/C,"dose: 400.0 mg/kg/injection, schedule: Q04DX003 (ip), vehicle: Klucel (hydroxypropylcellulose) (HPC)",88 % of control
CSC(=S)NNC(=O)c1cccc([N+](=O)[O-])c1,T/C,"dose: 6.25 mg/kg/injection, schedule: Q04DX003 (ip), vehicle: saline sonified",110 % of control
same,T/C,"dose: 12.5 mg/kg/injection, schedule: Q04DX003 (ip), vehicle: saline sonified",105 % of control
same,T/C,"dose: 25.0 mg/kg/injection, schedule: Q04DX003 (ip), vehicle: saline sonified",100 % of control
COc1ccc2c(c1)CCC1C2CCC2(C)C(=O)OC(=O)C12 (stereo unspecified),T/C,"dose: 87.5 mg/kg/injection, schedule: Q01DX009 (sc), vehicle: steriod suspending solution",91 % of control
same,T/C,"dose: 100.0 mg/kg/injection, schedule: Q04DX003 (sc), vehicle: steriod suspending solution",100 % of control
same,T/C,"dose: 175.0 mg/kg/injection, schedule: Q01DX009 (sc), vehicle: steriod suspending solution",100 % of control
same,T/C,"dose: 200.0 mg/kg/injection, schedule: Q04DX003 (sc), vehicle: steriod suspending solution",109 % of control
same,T/C,"dose: 350.0 mg/kg/injection, schedule: Q01DX009 (sc), vehicle: steriod suspending solution",95 % of control
same,T/C,"dose: 400.0 mg/kg/injection, schedule: Q04DX003 (sc), vehicle: steriod suspending solution",95 % of control
CCCCNC(C)(C)CO,T/C,"dose: 3.12 mg/kg/injection, schedule: Q01DX009 (ip), vehicle: saline",100 % of control
same,T/C,"dose: 6.25 mg/kg/injection, schedule: Q01DX009 (ip), vehicle: saline",99 % of control
same,T/C,"dose: 12.5 mg/kg/injection, schedule: Q01DX009 (ip), vehicle: saline",99 % of control
same,T/C,[6],102 % of control
same,T/C,"dose: 25.0 mg/kg/injection, schedule: Q01DX009 (ip), vehicle: saline",99 % of control
same,T/C,[7],100 % of control
same,T/C,"dose: 50.0 mg/kg/injection, schedule: Q01DX009 (ip), vehicle: saline",86 % of control
same,T/C,[1],102 % of control
same,T/C,[8],103 % of control
same,T/C,[2],95 % of control and 100 % of control
C=CC[n+]1cccc2ccccc21,T/C,"dose: 6.25 mg/kg/injection, schedule: Q04DX003 (ip), vehicle: saline",100 % of control
same,T/C,"dose: 12.5 mg/kg/injection, schedule: Q01DX009 (ip), vehicle: Klucel (hydroxypropylcellulose) (HPC)",86 % of control
same,T/C,[6],95 % of control
same,T/C,[9],90 % of control
same,T/C,[7],109 % of control
O=C1c2cccnc2C(=O)N1Cc1ccccc1,T/C,"dose: 9.38 mg/kg/injection, schedule: Q01DX009 (ip), vehicle: saline with Tween-80",109 % of control
same,T/C,"dose: 18.7 mg/kg/injection, schedule: Q01DX009 (ip), vehicle: saline with Tween-80",95 % of control
same,T/C,"dose: 37.5 mg/kg/injection, schedule: Q01DX009 (ip), vehicle: saline with Tween-80",100 % of control
CN1C(c2ccc(Cl)cc2)OCC1(C)C (stereo unspecified),T/C,[10],100 % of control
same,T/C,[11],100 % of control
same,T/C,"dose: 200.0 mg/kg/injection, schedule: Q01DX001 (ip), vehicle: saline sonified",100 % of control
O=c1oc2c3ccccc3c3ccccc3c2o1,T/C,[9],117 % of control
same,T/C,"dose: 50.0 mg/kg/injection, schedule: Q01DX009 (ip), vehicle: Klucel (hydroxypropylcellulose) (HPC)",115 % of control
same,T/C,"dose: 100.0 mg/kg/injection, schedule: Q01DX009 (ip), vehicle: Klucel (hydroxypropylcellulose) (HPC)",114 % of control
CCN1c2c(nc(N)[nH]c2=O)NCC1CNc1ccc(C(=O)NC(CCC(=O)O)C(=O)O)cc1 (stereo unspecified),T/C,[8],101 % of control
same,T/C,"dose: 200.0 mg/kg/injection, schedule: Q01DX009 (ip), vehicle: saline",105 % of control
same,T/C,"dose: 400.0 mg/kg/injection, schedule: Q01DX009 (ip), vehicle: saline",105 % of control
COc1cc(Cc2nccc3cc(OC)c(OC)cc23)c(C(C)=O)cc1OC,T/C,"dose: 8.0 mg/kg/injection, schedule: Q01DX009 (ip), vehicle: saline",153 % of control
same,T/C,"dose: 8.2 mg/kg/injection, schedule: Q01DX009 (ip), vehicle: saline sonified",150 % of control
same,T/C,"dose: 12.5 mg/kg/injection, schedule: Q01DX009 (ip), vehicle: saline sonified",155 % of control
same,T/C,"dose: 18.75 mg/kg/injection, schedule: Q01DX009 (ip), vehicle: saline sonified",195 % of control
CC1(C)OB(C(B2OC(C)(C)C(C)(C)O2)=C(CCl)CCl)OC1(C)C,T/C,"dose: 25.0 mg/kg/injection, schedule: Q01DX001 (ip), vehicle: saline sonified",86 % of control
same,T/C,[10],95 % of control
same,T/C,[11],95 % of control
